Reference: patent publication US12358927B2, “IRAK4 inhibitor crystal and preparation method therefor” (CHIA TAI TIANQING PHARMACEUTICAL GROUP CO., LTD., priority 2020, dated 2025)
In brackets after ≈: the same amount, converted by molar mass. Several values for one entry are separate records, joined by “and”; a condition that tells them apart may be missing. Equal values may be shown once. Read-outs that look alike come from different tables or passages of the source. Each block holds one compound with its values, some of them ahead of it.

Columns and labels:
[1] = Equilibrium solubility experiment for biological media and pH buffers; assay type: physicochemical
Procedure: The taken samples were centrifuged, the supernatant of the samples was taken and diluted by a proper time after pH was determined, and the concentration of the supernatant was determined by UPLC.
Diluent: acetonitrile:water (1:1)
Mobile phase A: 0.1% aqueous FA solution
Mobile phase B: 0.1% FA ACN/MeOH (1:1) solution
Two parts of control solutions were prepared in parallel, and labeled STD #1 and STD #2, respectively.
The control solution STD #1 was taken and diluted by 1, 5, 10, 100, 1000, 2000 times, and recorded as linear solutions L1, L2, L3, L4, L5 and L6. The sample diluted by 2000 times was recorded as LOQ.

[2] = In vivo pharmacokinetic study in SD rats; conditions: rat, plasma, SD male rats, oral, 30 mg/kg
Procedure: The test compound was mixed with 5% dimethyl sulfoxide/10% polyoxyethylene stearate/85% aqueous solution, and the mixture was vortexed and sonicated to prepare a 3 mg/mL clear solution for later use. SD male rats aged 7 to 10 weeks were selected and orally administered with a dose of the candidate compound at 30 mg/kg. Whole blood was collected at certain time points, and plasma was separated. The drug concentration was measured by LC-MS/MS, and pharmacokinetic parameters were calculated using Phoenix WinNonlin software (Pharsight, USA).

[3] = Study of approximate solubility in water; assay type: physicochemical; conditions: room temperature, dissolution determined by the naked eye
Procedure: About 2.0 mg of samples were weighed and added into 1.5 mL glass vials, water was gradually added using pipetting gun, and the mixture was dissolved by sonication as appropriate. The test was conducted at room temperature and the dissolution was determined by the naked eye, and the approximate solubility results are shown in Table 10.

[4] = Study of hygroscopicity (25° C., 80% relative humidity, 24 h); assay type: physicochemical; conditions: relative humidity 80%
Description: Calculation: weight gain %=(m3−m2)/(m2−m1)×100%

[5] = Study of solid stability (accelerated conditions, XRPD); assay type: physicochemical; conditions: 40° C./75% RH 2 and 3 months; 60° C./75% RH 1 and 2 months
Procedure: The samples were placed at (40° C./75% RH) for 2 months and 3 months and at (60° C./75% RH) for 1 month and 2 months, and the placed samples were characterized by XRPD. The test results were compared with the initial test results of 0 days.

[6] = Study of polycrystalline forms (solution suspension crystallization, XRPD); assay type: physicochemical; conditions: 13 single or mixed solvents of Table 7, stirred 2 days at 50° C.
Procedure: Then, samples of the aforementioned suspensions were stirred for 2 days on a constant-temperature heating stirrer at 50° C. The reaction system was cooled to room temperature, filtered and concentrated to remove the solvent, to give samples, and XRPD testing was performed on the samples.

- solubility at 24 h ([1]; aqueous buffer, thermodynamic from solid, pH = 6.00 buffer, 37° C., 24 h, pH (24 h) 5.12, white suspension, read-out: Solubility (mg/mL) _24 hr): 1.3 mg/mL (≈ 2.34 mM)
- solubility at 24 h ([1]; pH 1.77, simulated gastric fluid, thermodynamic from solid, SGF, 37° C., 24 h, pH (24 h) 1.77, opalescent and opaque, read-out: Solubility (mg/mL) _24 hr): 10.5 mg/mL (≈ 18.9 mM)
- solubility at 24 h ([1]; pH 2.00 and pH 3.8 buffers, 37 °C, simulated gastric fluid, thermodynamic from solid, at pH=1.00, pH=2.00, pH=3.8, water and SGF, read-out: solubility): > 10 mg/mL
- solubility at 24 h ([1]; pH 3.8, aqueous buffer, thermodynamic from solid, pH = 3.80 buffer, 37° C., 24 h, pH (24 h) 2.61, opalescent and opaque, read-out: Solubility (mg/mL) _24 hr): 10.2 mg/mL (≈ 18.4 mM)
- solubility at 24 h ([1]; pH 4.5, aqueous buffer, thermodynamic from solid, pH = 4.50 buffer, 37° C., 24 h, pH (24 h) 4.12, white suspension, read-out: Solubility (mg/mL) _24 hr): 10.3 mg/mL (≈ 18.5 mM)
- solubility at 24 h ([1]; pH 4.75, thermodynamic from solid, FeSSIF, 37° C., 24 h, pH (24 h) 4.75, white suspension, read-out: Solubility (mg/mL) _24 hr): 1.32 mg/mL (≈ 2.38 mM)
- solubility at 24 h ([1]; pH 5.5, aqueous buffer, thermodynamic from solid, pH = 5.50 buffer, 37° C., 24 h, pH (24 h) 5.26, white suspension, read-out: Solubility (mg/mL) _24 hr): 0.31 mg/mL (≈ 0.558 mM)
- solubility at 24 h ([1]; pH 6.04, thermodynamic from solid, FaSSIF, 37° C., 24 h, pH (24 h) 6.04, white suspension, read-out: Solubility (mg/mL) _24 hr): 0.14 mg/mL (≈ 0.252 mM)
- solubility at 24 h ([1]; pH 6.8, aqueous buffer, thermodynamic from solid, pH = 6.80 buffer, 37° C., 24 h, pH (24 h) 6.57, white suspension, read-out: Solubility (mg/mL) _24 hr): 0.05 mg/mL (≈ 0.09 mM)
- solubility at 24 h ([1]; pH 7.4, aqueous buffer, thermodynamic from solid, pH = 7.40 buffer, 37° C., 24 h, pH (24 h) 7.07, white suspension, read-out: Solubility (mg/mL) _24 hr): 0.0012 mg/mL (≈ 0.00216 mM)
- solubility at 24 h ([1]; simulated gastric fluid, thermodynamic from solid, pH = 1.00 buffer, 37° C., 24 h, pH (24 h) 1.11, opalescent and opaque, read-out: Solubility (mg/mL) _24 hr): 10.5 mg/mL (≈ 18.9 mM)
- solubility at 24 h ([1]; simulated gastric fluid, thermodynamic from solid, pH = 2.00 buffer, 37° C., 24 h, pH (24 h) 1.90, opalescent and opaque, read-out: Solubility (mg/mL) _24 hr): 10.5 mg/mL (≈ 18.9 mM)
- solubility at 24 h ([1]; water, pH 2.29, water, thermodynamic from solid, H2O, 37° C., 24 h, pH (24 h) 2.29, opalescent and opaque, read-out: Solubility (mg/mL) _24 hr): 9.12 mg/mL (≈ 16.4 mM)
- bioavailability ([2]; read-out: Bioavailability F (%)): 62%
- AUC(0-t) ([2]; read-out: Area under plasma concentration-time curve AUC0-last): 10.6 µM·h
- Cmax ([2]; read-out: Peak concentration Cmax): 1580 nM
- Tmax ([2]; read-out: Time to peak Tmax): 3 h
Compound: COC(=O)N1CCN([C@H]2CC[C@H](Nc3nc(Nc4cnn(C5CCOCC5)c4)nc4snc(C)c34)CC2)CC1

- Approximate solubility [3]: <1000 µg/mL
Compound: COC(=O)N1CCN([C@H]2CC[C@H](Nc3nc(Nc4cnn(C5CCOCC5)c4)nc4snc(C)c34)CC2)CC1 [Compound of formula (I)]

- Weight gain % Average value ([4]; average of two samples): 1.3%
- Weight gain % ([4]; single samples No. 1 and 2): 1.34% and 1.22%
- crystal form under all stability conditions [5]: unchanged
- solubility description (Chinese pharmacopoeia) ([1]; at pH=4.50): minimally soluble
- solubility description (Chinese pharmacopoeia) ([1]; at pH=5.00 and FaSSIF): very slightly soluble
- solubility description (Chinese pharmacopoeia) ([1]; at pH=6.00 and FeSSIF): slightly soluble
- solubility description (Chinese pharmacopoeia) ([1]; at pH=6.80 and pH=7.40): almost insoluble or insoluble
- Approximate solubility [3]: >100000 µg/mL
Compound: COC(=O)N1CCN([C@H]2CC[C@H](Nc3nc(Nc4cnn(C5CCOCC5)c4)nc4snc(C)c34)CC2)CC1 [Crystalline form A of the compound of formula (II)]
- Determination result (hygroscopicity) [4]: Slightly hygroscopic (0.2% to 2% weight gain)
- crystalline form after suspension stirring (XRPD) [6]: all samples were the crystalline form A of the compound of formula (II)
